Test results as given in ChEMBL document CHEMBL4346762, “Design, synthesis and anticancer activity of constrained sphingolipid-phenoxazine/phenothiazine hybrid constructs targeting protein phosphatase 2A” (Bioorg Med Chem Lett, 2019).

How the values were obtained:
FL5.12 [1] = test: Induction of vacuolation in mouse FL5.12 cells assessed as vacuolation score at 2.5 uM preincubated with PP2A inhibitor calyculin A for 60 mins followed by compound addition and measured after 2 hrs by fluorescence microscopic method; type: functional
[2] = Inhibition of protein phosphatase 2A in mouse FL5.12 cells assessed as reduction in cell viability incubated for 48 hrs by propidium iodide staining based flow cytometric analysis; settings: FL5.12, 48 h
FL5.12 [3] = test: Induction of vacuolation in mouse FL5.12 cells assessed as vacuolation score at 10 uM preincubated with PP2A inhibitor calyculin A for 60 mins followed by compound addition and measured after 2 hrs by fluorescence microscopic method; type: functional
FL5.12 [4] = test: (§1) Inhibition of protein phosphatase 2A in mouse FL5.12 cells assessed as induction of surface nutrient transporter loss by measuring downregulation of CD98 expression level at 2.5 uM preincubated with PP2A inhibitor calyculin A for 60 mins followed by compound addition and measured after 2 hrs by flow cytometric analysis relative to control; type: cell-based; parameters: scale not given: the % may be the effect or the level left
FL5.12 [5] = test: as §1, with “10” for “2.5”; type: cell-based; parameters: scale not given: the % may be the effect or the level left
FL5.12 [6] = test: as §1, with “40” for “2.5”; type: cell-based; parameters: scale not given: the % may be the effect or the level left
FL5.12 [7] = test: Induction of vacuolation in mouse FL5.12 cells assessed as vacuolation score at 40 uM preincubated with PP2A inhibitor calyculin A for 60 mins followed by compound addition and measured after 2 hrs by fluorescence microscopic method; type: functional
Mus musculus = species: Mus musculus; test: Ratio of IC50 for SH-BC-893 to IC50 for test compound for inhibition of protein phosphatase 2A in mouse FL5.12 cells assessed as reduction in cell viability incubated for 48 hrs by propidium iodide staining based flow cytometric analysis

SMILES: CCCCCCCCc1ccc([C@H]2CCN[C@@H]2COCCCC(O)c2cccnc2)cc1.Cl (some centres not stated)
- Activity (FL5.12 [1]): 8
- IC50 [2]: 2.4 µM
- Activity (FL5.12 [3]): 17
- Activity (FL5.12 [4]): 24%
- Activity (FL5.12 [5]): 51%

SMILES: O=S(=O)(N[C@@H]1CCC[C@H](N2c3ccccc3Oc3ccccc32)[C@H]1O)c1ccc(OC(F)(F)F)cc1
- IC50 [2]: 15.2 µM
- Activity (FL5.12 [3]): 0
- Activity (FL5.12 [6]): 31%
- Activity (FL5.12 [7]): 11
- Activity (FL5.12 [5]): 7%

SMILES: CCCCCCCCc1ccc([C@H]2CCN[C@@H]2COCCCCc2cccnc2)cc1.Cl
- Activity (FL5.12 [1]): 12
- IC50 [2]: 2.1 µM
- Activity (FL5.12 [3]): 11
- Activity (FL5.12 [4]): 40%
- Activity (FL5.12 [5]): 64%

SMILES: CCCCCCCCc1ccc([C@H]2CCN[C@@H]2COCCCCN2c3ccccc3Oc3ccccc32)cc1.Cl
- Ratio IC50 (Mus musculus): 2 to 3
- Activity (FL5.12 [1]): 7
- IC50 [2]: 5.8 µM
- Activity (FL5.12 [3]): 15
- Activity (FL5.12 [4]): 5%
- Activity (FL5.12 [5]): 15%

SMILES: CCCCCCCCc1ccc([C@H]2CCN[C@@H]2COCCCC(O)c2cnc(OC)nc2OC)cc1.Cl (some centres not stated)
- Activity (FL5.12 [1]): 8
- IC50 [2]: 2.7 µM
- Activity (FL5.12 [3]): 15
- Activity (FL5.12 [4]): 10%
- Activity (FL5.12 [5]): 60%

SMILES: CCCCCCCCc1ccc([C@H]2CCN[C@@H]2COCCCCCN2c3ccccc3Oc3ccccc32)cc1.Cl
- IC50 [2]: 8.6 µM
- Activity (FL5.12 [3]): 16
- Activity (FL5.12 [6]): 38%
- Activity (FL5.12 [7]): 66
- Activity (FL5.12 [5]): -3%

SMILES: CCCCCCCCc1ccc([C@H]2CCN[C@@H]2COCCCCCN2c3ccccc3Sc3ccccc32)cc1.Cl
- IC50 [2]: 7.5 µM
- Activity (FL5.12 [3]): 18
- Activity (FL5.12 [6]): 29%
- Activity (FL5.12 [7]): 42
- Activity (FL5.12 [5]): -8%

SMILES: CCCCCCCCc1ccc([C@H]2CCN[C@@H]2COCCCN2c3ccccc3Oc3ccccc32)cc1.Cl
- Ratio IC50 (Mus musculus): 2 to 3
- Activity (FL5.12 [1]): 2
- IC50 [2]: 4.6 µM
- Activity (FL5.12 [3]): 23
- Activity (FL5.12 [4]): 4%
- Activity (FL5.12 [5]): 27%

SMILES: OCCN1CCN(CCCN2c3ccccc3Sc3ccc(Cl)cc32)CC1 [PERPHENAZINE]
- Activity (FL5.12 [1]): 1
- IC50 [2]: 4.8 µM
- Activity (FL5.12 [3]): 3
- Activity (FL5.12 [4]): 19%
- Activity (FL5.12 [5]): 58%

SMILES: CCCCCCCCc1ccc([C@H]2CCN[C@@H]2CO)cc1.Cl
- Activity (FL5.12 [1]): 46
- IC50 [2]: 1.8 µM
- Activity (FL5.12 [3]): 60
- Activity (FL5.12 [4]): 32%
- Activity (FL5.12 [5]): 69%
